Legend:
Aptamer 21-E [1] = assay: SEC/LCMS binding to Aptamer 21-E
Description: (§1) The RNA concentration was 1 μM and the ligand concentration ranged from 0.1 to 10 μM in an appropriate buffer (TRIS-HCl 20 mM pH 8.0, MgCl2 3 mM, KCl 100 mM).
(§2) The RNA/ligand mixtures were incubated at room temperature for 20 minutes in a 96-well plate format, then this plate was loaded into an autosampler linked to the chromatography system fitted with a reusable SEC column for rapid separation of target/ligand complexes from unbound components. RNA/ligand complexes in SEC eluent were monitored by UV detection, and an automated valving system directed the RNA peak to a reverse phase chromatography column for dissociation, desalting, and elution of any ligands into an ESI-MS system for identification.
(§3) All liquid chromatographic components were HP1200 modules. The mass spectrometer was the Waters LCT premier instrument operated in positive electrospray (ES+) TOF-MS mode. The mass range acquired was 80-1000 m/z in 0.25 s. The SEC column was 50×4.6 mm polyhydroxyethyl column. The SEC mobile phase was 50 mM phosphate buffer with 200 mM NaCl, pH=7.0. The LC column was a 2.1×50 mm C18 Phenomenex column. The gradient LC mobile phase A was 0.1% formic acid in water and B was acetonitrile/water with 0.1% formic acid. The run time was 7.9 min.
The start of saturation was between 1 and 3 μM.

Aptamer 21-E [2] = assay: SHAPE-MaP on Aptamer 21-E with and without ligand; conditions: suggesting weak binding
Description: The SHAPE-MaP approach exploits conditions that cause reverse transcriptase to misread SHAPE-modified nucleotides and incorporate a nucleotide non-complementary to the original sequence into the newly synthesized cDNA. The positions and relative frequencies of SHAPE adducts are recorded as mutations in the cDNA primary sequence. In a SHAPE-MaP experiment, the RNA is treated with a SHAPE reagent or treated with solvent only, and the RNA is […]. RNA from each experimental condition is reverse-transcribed, and the resulting cDNAs are then sequenced. […]
SHAPE-MaP can be performed and analyzed according to detailed published methods (Martin et al., RNA 2012; 18:77-87; McGuinness et al., J. Am. Chem. Soc. 2012; 134:6617-6624; Siegfried et al., Nature Methods 2014; 11:959-965; Lavender et al., PLoS Comput. Biol. 2015; 11(5)e1004230; McGuinness et al., Proc. Natl. Acad. Sci. USA 2015; 112:2425-2430). The SHAPE-MaP sequence data can be analyzed using ShapeFinder (Vasa et al., RNA 2008; 14:1979-1990) or ShapeMapper (Siegfried et al., Nature Methods 2014; 11:959-965) or other software. […]
For all SHAPEware analysis, reads were adapter-trimmed aligned as previously described (https://bitbucket.org/arrakistx/shapeware/src) using Trimmomatic (http://dx.doi.org/10.1093/bioinformatics/btu170) and bwa-mem (https://arxiv.org/abs/1303.3997), respectively. […]

Aptamer 21 RNA = assay: Online SEC-LCMS binding to Aptamer 21 RNA; conditions: for % of binding: RNA 1 uM
Description: Online SEC-LCMS has been used to study the binding to Aptamer 21 RNA against I-1 (ARK-139).
as §1, §2, §3
Binding of I-1 to Aptamer 21 was measured. SEC/LCMS conditions for this experiment were: [I-1]=5 uM, [RNA]=1 uM, Buffer=Tris-HCl 20 mM, KCl 100 mM, 3 mM MgCl2.

In the case of `COC(=O)C1=C(COCc2cn(CCOCCOCCO)nn2)NC(c2ccncc2)=NC1c1ccc(F)cc1Cl` (racemic) [I-1], the “binding to Aptamer 21-E by SEC/LCMS” value (Aptamer 21-E [1]) is reported as “does not bind”, the “alteration in SHAPE reactivity of Aptamer 21-E in presence of ligand” value (Aptamer 21-E [2]) is reported as “almost no alteration” and the “% of binding” value (Aptamer 21 RNA; ARK-000139 conc 0.1 μM) is reported as 72.5%. The “% of binding” value (Aptamer 21 RNA; ARK-000139 conc 0.5 μM) was 36.5%, the “% of binding” value (Aptamer 21 RNA; ARK-000139 conc 1 μM) was 33.6% and the “% of binding” value (Aptamer 21 RNA; ARK-000139 conc 3 μM) was 22.4%. For the same compound, the “% of binding” value (Aptamer 21 RNA; ARK-000139 conc 10 μM) was 8.9% and the “binding to Aptamer 21 by SEC-MS” value (Aptamer 21 RNA; data not shown) was “confirmed”.
